In publication PMC11851464, “Development of a Spectrophotometric Assay for the Cysteine Desulfurase from Staphylococcus aureus” (Antibiotics, 2025):

Key:
[1] = target: T1, cysteine desulfurase SufS (SaSufS) (Staphylococcus aureus, UniProt A0A0H2XHJ5); assay: spectrophotometric […] nm assay after […] h incubation; UV-Vis of PLP adduct; format: biochemical
[2] = target: T1, cysteine desulfurase SufS (SaSufS); assay: spectrophotometric […] nm assay after […] h incubation; Ala-NDA assay (IC50 […]); UV-Vis of PLP adduct; format: biochemical

T1 sequence (A0A0H2XHJ5 1-413): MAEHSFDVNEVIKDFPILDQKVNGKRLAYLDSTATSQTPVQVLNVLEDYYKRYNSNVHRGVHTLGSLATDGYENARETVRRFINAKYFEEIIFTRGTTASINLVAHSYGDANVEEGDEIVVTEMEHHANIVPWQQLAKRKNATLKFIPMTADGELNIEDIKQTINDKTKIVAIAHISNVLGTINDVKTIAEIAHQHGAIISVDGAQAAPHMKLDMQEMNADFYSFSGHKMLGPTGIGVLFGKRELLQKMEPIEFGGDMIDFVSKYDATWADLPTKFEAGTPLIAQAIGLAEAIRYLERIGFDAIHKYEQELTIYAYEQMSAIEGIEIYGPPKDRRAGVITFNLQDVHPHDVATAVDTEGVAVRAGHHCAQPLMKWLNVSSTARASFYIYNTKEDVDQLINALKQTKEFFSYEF

| Compound | IC50 [1] | IC50 [2] |
| --- | --- | --- |
| N[C@@H]1CON=C1O [DCS, D-cycloserine] | 2170 ± 920 µM | – |
| N[C@H]1CONC1=O [LCS, L-cycloserine] | – | 62 ± 23 µM |
